Reference: publication PMC10054552, “Phototoxic Potential of Different DNA Intercalators for Skin Cancer Therapy: In Vitro Screening” (International Journal of Molecular Sciences, 2023)
Like-named read-outs stand apart in the source and are kept apart here.

Legend:
MET1 cells [1] = experiment: Cytotoxicity (resazurin cell viability) in MET1 cells; type: cell-based, human
Excerpt: (§1) The MET1 SCC cell line (human squamous cell carcinoma) was obtained from Ximbio (London, UK), HaCaT (immortalized human keratinocytes cell line) was obtained from Addexbio (San Diego, CA, USA) and WM983b (human metastatic melanoma cell line) was obtained from Rockland (Pottstown, PA, USA). Cells were maintained in Dulbecco’s Modified Eagle Medium (DMEM) supplemented with 10% (v/v) fetal bovine serum (FBS) for MET1 and HaCaT and 5% (v/v) for WM983b cells, and Pen–Strep (penicillin 100 U/mL and streptomycin 100 µg/mL). Cells were cultivated in an incubator (Sanyo MCO-19AIC-UV) at 37 °C in a 5% CO2 humidified atmosphere.
(§2) First, 96-well plates were seeded with HaCaT and MET1 cells at a density of 20,000 cells/cm² and incubated for 24 h. After that period, the culture medium was replaced by culture medium containing different compounds: MB, AO, GV, QT, CUR, EGCG, PHE, NEO and BIPY. The compounds were diluted in culture medium using a range of concentrations of each compound from 1.25 µM to 320 µM (in quadruplicate). The medium was aspirated from the 96-well plate and replaced by the samples diluted in medium. Cells cultured with complete medium and cells cultured with medium supplemented with 0.2% (v/v) or 10% (v/v) of DMSO were used as negative (NC), solvent (SC) and positive controls (PC), respectively. The plates were incubated for 24 and 48 h, followed by evaluation of cell viability using a colorimetric assay. Cells containing samples were washed with PBS supplemented with calcium and magnesium; then, resazurin solution diluted in DMEM at 0.02 mg/mL was added. The medium containing resazurin was also dispensed in wells without cells, which were used as references. After 3 h of incubation, the absorbance was measured in a microplate reader (ELX800UV, Biotek Instruments) at wavelengths of 570 nm and 600 nm. The corrected absorbance was proportional to cell viability. Propagation of uncertainties was used to calculate the combined standard uncertainty. For the cytotoxicity study using WM983b cells, plates were seeded at a density of 40,000 cells/cm², and cells were treated only with MB and AO.

HaCaT cells = experiment: Cytotoxicity (resazurin cell viability) in HaCaT cells; type: cell-based, human
Excerpt: as §1, §2

MET1 cells [2] = experiment: Phototoxicity assay in MET1 cells (irradiation 2.5 J/cm², resazurin); type: cell-based, human; details: for phototoxicity in the investigated range: 1.25-40 µM, irradiated vs dark
Protocol: (§3) The […] SCC cell line (human squamous cell carcinoma) was obtained from Ximbio (London, UK), HaCaT (immortalized human keratinocytes cell line) was obtained from Addexbio (San Diego, CA, USA) and WM983b (human metastatic melanoma cell line) was obtained from Rockland (Pottstown, PA, USA). […] Cells were cultivated in an incubator (Sanyo MCO-19AIC-UV) at 37 °C in a 5% CO2 humidified atmosphere. […] The plates were incubated for 24 h, followed by washing with PBS supplemented with calcium and magnesium. Afterwards, complete culture medium without phenol red was added, and the plates were irradiated from above and submitted to a dose of 2.5 J/cm2 of irradiation emitted by different wavelength light sources coupled with a homemade irradiation system created in our laboratory. […] This experiment was performed in an incubator that was able to keep plates in a dark environment; therefore, the dark control plates were protected from any light source, as well as the others, with the exception of the irradiation that each one was submitted to. Plates were incubated for another 24 h, and finally, the resazurin assay was performed as previously described in Section 3.3. For the phototoxicity study using WM983b cells, plates were prepared at a cell density of 40,000 cells/cm2, and cells were treated with MB and AO only.

[3] = as above; type: cell-based, human; details: human, MET1 squamous cell carcinoma cells, MET1 cells, dark
Protocol: as §3

WM983b cells [4] = experiment: Phototoxicity assay in WM983b cells (irradiation 2.5 J/cm², resazurin); type: cell-based; details: Homo sapiens, light or radiation study, treated 24 h
Excerpt: as §1
For the phototoxicity studies, 96-well plates were seeded with MET1 cells at a density of 20,000 cells/cm², incubated overnight and treated for 24 h with MB, AO, GV, QT, CUR, EGCG, PHE, NEO and BIPY diluted in culture medium in a concentration range of 1.25 µM to 40 µM (in sextuplicate). […] Cells cultured with complete medium and cells cultured with medium supplemented with 0.2% (v/v) or 10% (v/v) of DMSO were used as negative (NC), solvent (SC) and positive control (PC), respectively. The plates were incubated for 24 h, followed by washing with PBS supplemented with calcium and magnesium. Afterwards, complete culture medium without phenol red was added, and the plates were irradiated from above and submitted to a dose of 2.5 J/cm² of irradiation emitted by different wavelength light sources coupled with a homemade irradiation system created in our laboratory. These light sources consisted of an equivalent 26 cm UV tubular lamp (254 nm) (Phillips TUV PLS 9W/2PHg) and a tricolor LED lamp (Led Grow Light Bulb E26/E27) with intensity peaks at 457 nm (blue light), 583 nm (yellow light) and 640 nm (red light) provided by 18, 18 and 28 LEDs, respectively, with dimensions of 3 × 3 mm^2. The irradiance values of light at 254, 457, 583 and 640 nm wavelengths were of 16.7, 55, 45 and 25 W/m^2, respectively. This experiment was performed in an incubator that was able to keep plates in a dark environment; therefore, the dark control plates were protected from any light source, as well as the others, with the exception of the irradiation that each one was submitted to. Plates were incubated for another 24 h, and finally, the resazurin assay was performed as previously described in Section 3.3. For the phototoxicity study using WM983b cells, plates were prepared at a cell density of 40,000 cells/cm², and cells were treated with MB and AO only.

WM983b cells [5] = experiment: Cytotoxicity (resazurin cell viability) in WM983b cells; type: cell-based, human; details: for IC50: Homo sapiens, 1.25-320 µM
Excerpt: as §1, §2

[6] = Homo sapiens, MET-1, MET1 cells, 24 h exposure, 1.25-320 µM, read-out: IC50 MET1 Cells 24 h
[7] = Homo sapiens, MET-1, MET1 cells, 48 h exposure, 1.25-320 µM, read-out: IC50 MET1 Cells 48 h
[8] = Homo sapiens, MET-1, MET1 cells, exposure time not given, read-out: IC50 in MET1 cells (summary statement)
[9] = Homo sapiens, HaCaT cells, 24 h exposure, 1.25-320 µM, read-out: IC50 HaCaT Cells 24 h
[10] = Homo sapiens, HaCaT cells, 48 h exposure, 1.25-320 µM, read-out: IC50 HaCaT Cells 48 h
[11] = Homo sapiens, MET-1, light or radiation study, MET1 cells, light condition not stated, read-out: IC50 phototoxicity results (summary statement)
[12] = Homo sapiens, MET-1, light or radiation study, MET1 cells, treated 24 h, 254 nm light, 2.5 J/cm², read-out: IC50 254 nm
[13] = Homo sapiens, MET-1, light or radiation study, MET1 cells, treated 24 h, 457 nm light, 2.5 J/cm², read-out: IC50 457 nm
[14] = Homo sapiens, MET-1, light or radiation study, MET1 cells, treated 24 h, 583 nm light, 2.5 J/cm², read-out: IC50 583 nm
[15] = Homo sapiens, MET-1, light or radiation study, MET1 cells, treated 24 h, 640 nm light, 2.5 J/cm², read-out: IC50 640 nm
[16] = Homo sapiens, MET-1, light or radiation study, MET1 cells, treated 24 h, dark control (no irradiation), read-out: IC50 Dark

Row | Structure (SMILES) | IC50 (MET1 cells [1]; [6]) | IC50 (MET1 cells [1]; [7]) | IC50 (MET1 cells [1]; [8]) | IC50 (HaCaT cells; [9]) | IC50 (HaCaT cells; [10]) | IC50 (MET1 cells [2]; [12]) | IC50 (MET1 cells [2]; [13]) | IC50 (MET1 cells [2]; [14]) | IC50 (MET1 cells [2]; [15]) | IC50 (MET1 cells [2]; [16]) | further results
1 | O=c1c(O)c(-c2ccc(O)c(O)c2)oc2cc(O)cc(O)c12 [Quercetin, quercetin] | > 320 µM | 110 µM | > 100 µM | > 320 µM | 315 µM | 205 µM | 288 µM | 269 µM | 340 µM | 230 µM | IC50 (MET1 cells [2]; [11]): > 100 µM
2 | COc1cc(/C=C/C(=O)CC(=O)/C=C/c2ccc(O)c(OC)c2)ccc1O [Curcumin, curcumin] | 26 µM | 7.2 µM | < 30 µM | 9 µM | 11.7 µM | 9.3 µM | 10.7 µM | 11.5 µM | 11 µM | 15.5 µM | IC50 (MET1 cells [2]; Homo sapiens, MET-1, light or radiation study, MET1 cells, 640, 583, 457 and 254 nm, 2.5 J/cm², read-out: IC50 values under irradiation (all wavelengths together)): < 11.5 µM; IC50 (MET1 cells [2]; [11]): < 20 µM
3 | Cc1ccc2ccc3ccc(C)nc3c2n1 [Neocuproine, neocuproine] | > 320 µM | > 320 µM | – | > 320 µM | 159 µM | – | – | – | – | – | viability at 24 h ([3]; 1.25-40 µM, read-out: cell viability under dark conditions): < 70%
4 | c1cnc2c(c1)ccc1cccnc12 [1,10-phenanthroline] | 124 µM | 7.7 µM | > 100 µM | 35.2 µM | 5.9 µM | 6 µM | 4.9 µM | 6.8 µM | 4.8 µM | 7.4 µM | –
5 | CN(C)c1ccc2nc3ccc(=[N+](C)C)cc-3sc2c1 [Methylene blue, methylene blue] | 14.2 µM | 4.2 µM | – | 11.6 µM | 7.1 µM | 4.3 µM | 6.2 µM | 5 µM | 3.8 µM | 10.9 µM | IC50 (WM983b cells [4]; 640 nm light, 2.5 J/cm², read-out: IC50 irradiated samples (640 nm)): 2.1 µM; IC50 (WM983b cells [4]; without irradiation, read-out: IC50 non-irradiated samples): 7.3 µM; concentration above which the relative cell population falls below 70% (WM983b cells [5]; 24 or 48 h): above 10 µM; IC50 (WM983b cells [5]; 24 h exposure, read-out: IC50 WM983b cells 24 h): 18 µM; IC50 (WM983b cells [5]; 48 h exposure, read-out: IC50 WM983b cells 48 h): 6.1 µM
6 | c1ccc(-c2ccccn2)nc1 [2,2′-bipyridyl] | – | – | – | – | – | – | – | – | – | – | IC50 (MET1 cells [1]; Homo sapiens, MET-1, 24 h, read-out: IC50 MET1 Cells 24 h): 275 µM; IC50 (MET1 cells [1]; Homo sapiens, MET-1, 48 h, read-out: IC50 MET1 Cells 48 h): 97.2 µM; IC50 (MET1 cells [1]; Homo sapiens, MET-1, read-out: IC50 in MET1 cells (summary statement)): > 100 µM; IC50 (HaCaT cells; Homo sapiens, HaCaT, 24 h, read-out: IC50 HaCaT Cells 24 h): 125 µM; IC50 (HaCaT cells; Homo sapiens, HaCaT, 48 h, read-out: IC50 HaCaT Cells 48 h): 57.8 µM; IC50 (MET1 cells [2]; Homo sapiens, MET-1, light or radiation study, 24 h, read-out: IC50 254 nm): 225 µM; IC50 (MET1 cells [2]; Homo sapiens, MET-1, light or radiation study, 24 h, read-out: IC50 457 nm): 171 µM; IC50 (MET1 cells [2]; Homo sapiens, MET-1, light or radiation study, 24 h, read-out: IC50 583 nm): 190 µM; IC50 (MET1 cells [2]; Homo sapiens, MET-1, light or radiation study, 24 h, read-out: IC50 640 nm): 202 µM; IC50 (MET1 cells [2]; Homo sapiens, MET-1, light or radiation study, 24 h, read-out: IC50 Dark): 228 µM; IC50 (MET1 cells [2]; Homo sapiens, MET-1, light or radiation study, read-out: IC50 phototoxicity results (summary statement)): > 100 µM; phototoxicity in the investigated range (MET1 cells [2]; MET1 cells): did not show phototoxicity
7 | O=C(O[C@@H]1Cc2c(O)cc(O)cc2O[C@@H]1c1cc(O)c(O)c(O)c1)c1cc(O)c(O)c(O)c1 [Epigallocatechin gallate, epigallocatechin gallate] | – | – | – | – | – | – | – | – | – | – | IC50 (MET1 cells [1]; MET1 cells, 24 h exposure, 1.25-320 µM, read-out: IC50 MET1 Cells 24 h): 174 µM; IC50 (MET1 cells [1]; MET1 cells, 48 h exposure, 1.25-320 µM, read-out: IC50 MET1 Cells 48 h): 136 µM; IC50 (HaCaT cells; HaCaT cells, 24 h exposure, 1.25-320 µM, read-out: IC50 HaCaT Cells 24 h): 211 µM; IC50 (HaCaT cells; HaCaT cells, 48 h exposure, 1.25-320 µM, read-out: IC50 HaCaT Cells 48 h): 174 µM; phototoxicity in the investigated range (MET1 cells [2]; MET1 cells): no phototoxicity was observed; IC50 (MET1 cells [2]; MET1 cells, light condition not stated, read-out: IC50 phototoxicity results (summary statement)): > 100 µM; IC50 (MET1 cells [2]; MET1 cells, treated 24 h, 254 nm light, 2.5 J/cm², read-out: IC50 254 nm): 193 µM; IC50 (MET1 cells [2]; MET1 cells, treated 24 h, 457 nm light, 2.5 J/cm², read-out: IC50 457 nm): 222 µM; IC50 (MET1 cells [2]; MET1 cells, treated 24 h, 583 nm light, 2.5 J/cm², read-out: IC50 583 nm): 211 µM; IC50 (MET1 cells [2]; MET1 cells, treated 24 h, 640 nm light, 2.5 J/cm², read-out: IC50 640 nm): 224 µM; IC50 (MET1 cells [2]; MET1 cells, treated 24 h, dark control (no irradiation), read-out: IC50 Dark): 191 µM
8 | CN(C)c1ccc(C(=C2C=CC(=[N+](C)C)C=C2)c2ccc(N(C)C)cc2)cc1 [Gentian violet, gentian violet] | 3.9 µM | 1.2 µM | – | 2.8 µM | 0.9 µM | 1.5 µM | 2.7 µM | 1 µM | 1.8 µM | 2.9 µM | viability at 24 h, 1.25 µM ([3]; 1.25 µM, read-out: relative cell viability, dark condition, lowest concentration): < 60%
